Results published in patent US20170029813A1, “METHODS AND SYSTEMS FOR DROPLET TAGGING AND AMPLIFICATION” (President and Fellows of Harvard College, priority 2014, published 2017).

Legend:
[1] = test system: K562 chronic myeloid leukemia cells; assay: Apoptosis detection with fluorogenic caspase substrate Caspalux6-J1D2 in bulk and in drops; assay type: cell-based; conditions: K562 cells treated with Imatinib for 24 hours; both bulk and drop experiment (FIG. 7)
Method: Single K562 chronic myeloid leukemia cells were introduced to the drug combinations by picoinjecting a cell suspension to the merged drops at a concentration known to obtain a Poisson distribution with rate λ (lambda)=0.1, and incubated at 37° C. for 24 hours.
By adding a fluorogenic substrate, caspalux6-J1D2, which is specifically cleaved by increased caspase 3 and caspase 3-like activities during apoptosis, apoptosis of cells in drops can be determined.

Leukemia K562 cells = assay: Apoptosis and necrosis by Annexin V / propidium iodide staining of cells in agarose gel particles; assay type: cell-based; conditions: 48 hr incubation, drops containing 20 micrograms/mL Imatinib mixed at a 1:1 ratio (10 micrograms/mL per FIG. 12), PI and Annexin V staining
Method: In this example, first cells are mixed with molten low melt agarose at 37° C. and together incorporated into droplets. […] An UltraPure low melting point agarose is used in this experiment, which melts at 65.5° C., remains fluid at 37° C. and becomes solid rapidly at temperatures below 25° C. […] In this example, agarose powder was dissolved into PBS and autoclaved to prepare a sterilized 2% (w/v) agarose solution. Cells were counted and suspend in a DMEM culture media with 40% fetal bovine serum, and the cell suspension was mixed with agarose solution at 1:1 volume ratio. The mixture of cells and agarose gel was flowed into the sample inlet of a microfluidic drop-making device, and HFE7500 oil with 2% surfactant was flowed into the oil inlet to cause the cell-containing agarose gel to produce 80 micrometer drops. The generated gel-in-oil drops were collected into a pre-cooled eppendorf tube in an ice bath.
The drops containing agarose gel particles were collected into a pre-cooled eppendorf tube, after which the injected cell-containing agarose gel remained spherical. In the following steps, the agarose gel particles were injected into the drop containing drug combination and drug barcodes, followed by incubation, destabilization, staining, washing and FACS to obtain the gel particles containing positive cells. […]

## Cc1ccc(NC(=O)c2ccc(CN3CCN(C)CC3)cc2)cc1Nc1nccc(-c2cccnc2)n1 [Imatinib]
[1]
  apoptotic signal (Caspalux6-J1D2 fluorescence): clear apoptotic signal
Leukemia K562 cells
  apoptotic and necrotic cells: About 70%
